Inhibition and MIC90 data for 32 compounds are collected here from ChEMBL document CHEMBL1148772, “Inhibition of Mycobacterium tuberculosis, Mycobacterium bovis, and Mycobacterium avium by novel dideoxy nucleosides” (J Med Chem, 2007).

In general, inhibition refers to the drop in the measured response relative to a control, in per cent. High values mean strong suppression, low ones little suppression. As a reminder, the MIC90 is the lowest concentration that inhibits either 90% of growth or 90% of the strains tested, depending on the study.

Values after ≈ are worked out from the molar mass of the structure shown.

Holding throughout (format): functional
Common to all, as to details: variant bovis BCG

In test [1] the test system is Mycobacterium tuberculosis. Kind of test: Antimycobacterial activity against Mycobacterium bovis BCG at 50 uM by microplate alamar blue assay. For orientation: Resazurin is reduced to fluorescent resorufin, in cell work by metabolically active cells.
Test [2] relates to Mycobacterium tuberculosis. Kind of test: Antimycobacterial activity against Mycobacterium bovis BCG at 100 uM by microplate alamar blue assay.
Test [3] concerns Mycobacterium tuberculosis. Kind of test: Antimycobacterial activity against Mycobacterium bovis BCG at 10 uM by microplate alamar blue assay.
Test [4] relates to Mycobacterium tuberculosis. The test is described as follows: Antimycobacterial activity against Mycobacterium bovis BCG at 1 uM by microplate alamar blue assay.
Test [5] has as its system Mycobacterium tuberculosis. The test is described as follows: Antimycobacterial activity against Mycobacterium bovis BCG by microplate alamar blue assay.

With `CCCCCCCCC#Cc1cn([C@H]2CC[C@@H](CO)O2)c(=O)[nH]c1=O`, in test [1], testing at 50 µM gave an inhibition of 100%. In addition, the inhibition at 100 µM in test [2] stood at 100%. The same compound registered an inhibition at 10 µM in test [3] of 100%. In test [4], 1 µM produced 50% inhibition. In test [5], the MIC90 came out at 1 µg/mL (≈ 2.87 µM).

`CCCCCCCCCCC#Cc1cn([C@H]2C[C@H](F)[C@@H](CO)O2)c(=O)[nH]c1=O`: the inhibition at 50 µM in test [1] came to 100%. This compound returned an inhibition at 100 µM in test [2] of 100%. The inhibition at 10 µM in test [3] is 75%. Further, the MIC90 in test [5] stood at 10 µg/mL (≈ 25.3 µM).

`COc1nc(N)nc2c1ncn2[C@H]1CC[C@@H](CO)O1` [METACAVIR]: the inhibition at 50 µM in test [1] is 25%. For the same compound, 100 µM produced 25% inhibition in test [2].

In test [1], `Nc1nc(F)c2ccn([C@H]3CC[C@@H](CO)O3)c2n1` yielded an inhibition at 50 µM of 50%. For the same compound, testing at 100 µM in test [2] gave an inhibition of 50%. This compound also had an inhibition at 10 µM in test [3] of 30%.

As for `CC(=O)OC[C@@H]1CC[C@H](n2ccc(=O)[nH]c2=O)O1`, 100 µM produced 0% inhibition in test [2].

Compound `Nc1nc(=O)n([C@H]2CC[C@@H](CO)O2)cc1I` had an inhibition at 100 µM in test [2] of 0%.

`O=c1[nH]c(=S)c(Cl)cn1[C@H]1CC[C@@H](CO)O1`: at 50 µM the inhibition in test [1] was 50%. In addition, in test [2], at 100 µM the inhibition was 100%. The MIC90 in test [5] amounted to 50 µg/mL (≈ 190 µM).

As for `CCCc1ccc(C#Cc2cn([C@H]3C[C@H](F)[C@@H](CO)O3)c(=O)[nH]c2=O)cc1`, the inhibition at 50 µM in test [1] amounted to 100%. In addition, testing at 100 µM in test [2] gave an inhibition of 100%. The compound further had an inhibition at 10 µM in test [3] of 50%. The same compound returned an MIC90 in test [5] of 50 µg/mL (≈ 134 µM).

`Nc1nc(N)c2ncn([C@H]3CC[C@@H](CO)O3)c2n1` came in with an inhibition at 50 µM in test [1] of 50%. The same compound showed an inhibition at 100 µM in test [2] of 50%.

With `CCCCCCCCCCCCC#Cc1cn(C2CC(F)C(CO)O2)c(=O)[nH]c1=O` (stereo not drawn), in test [1], 50 µM produced 100% inhibition. The inhibition at 100 µM in test [2] was determined as 100%. Besides, in test [3], the inhibition at 10 µM came out at 100%. For the same compound, the MIC90 in test [5] turned out to be 1 µg/mL (≈ 2.37 µM).

Compound `CCCCCCCCCCCC#Cc1cn([C@H]2C[C@H](F)[C@@H](CO)O2)c(=O)[nH]c1=O` gave an inhibition at 50 µM in test [1] of 100%. The same compound came in with an inhibition at 100 µM in test [2] of 100%. The same compound yielded an inhibition at 10 µM in test [3] of 75%. This compound showed an MIC90 in test [5] of 10 µg/mL (≈ 24.5 µM).

In the case of `CCCCCCCCCCCC#Cc1cn([C@H]2CC[C@@H](CO)O2)c(=O)[nH]c1=O`, the inhibition at 50 µM in test [1] turned out to be 100%. This compound came in with an inhibition at 100 µM in test [2] of 100%. Besides, 10 µM produced 100% inhibition in test [3]. The compound also gave an inhibition at 1 µM in test [4] of 60%. The compound also gave an MIC90 in test [5] of 1 µg/mL (≈ 2.56 µM).

Take `Cc1cn([C@H]2CC[C@@H](CO)O2)c(=O)nc1N`: testing at 50 µM in test [1] gave an inhibition of 50%. At 100 µM the inhibition in test [2] was 50%. This compound also displayed an inhibition at 10 µM in test [3] of 50%.

The compound `Nc1ncnc2c1ncn2[C@H]1CC[C@@H](CO)O1` had an inhibition at 100 µM in test [2] of 0%.

The compound `NC(=O)c1cn([C@H]2CC[C@@H](CO)O2)c2ncnc(N)c12` had an inhibition at 50 µM in test [1] of 25%. The same compound displayed an inhibition at 100 µM in test [2] of 25%.

Turning to `CCCCCCCCC#Cc1cn([C@H]2C[C@H](F)[C@@H](CO)O2)c(=O)[nH]c1=O`, in test [1], the inhibition at 50 µM is 100%. This compound also yielded an inhibition at 100 µM in test [2] of 100%. This compound yielded an inhibition at 10 µM in test [3] of 60%. The MIC90 in test [5] was 10 µg/mL (≈ 27.3 µM).

On to `CCSc1nc(N)nc2c1ncn2[C@H]1CC[C@@H](CO)O1`, for which 50 µM produced 100% inhibition in test [1]. This compound showed an inhibition at 100 µM in test [2] of 100%. The compound also yielded an inhibition at 10 µM in test [3] of 40%. In test [5], this compound gave an MIC90 of 10 µg/mL (≈ 33.9 µM).

The compound `CC(=O)OC[C@@H]1CC[C@H](n2cc(Cl)c(=O)[nH]c2=O)O1` returned an inhibition at 100 µM in test [2] of 0%.

In the case of `Nc1ccn([C@@H]2CS[C@H](CO)O2)c(=O)n1` [LAMIVUDINE], in test [2], the inhibition at 100 µM was 0%.

In the case of `CCCCCC#Cc1cn([C@H]2C[C@H](F)[C@@H](CO)O2)c(=O)[nH]c1=O`, the inhibition at 50 µM in test [1] is 50%. In addition, 100 µM produced 100% inhibition in test [2]. This compound also registered an inhibition at 10 µM in test [3] of 50%. In test [5], this compound showed an MIC90 of 50 µg/mL (≈ 154 µM).

As to `O=c1[nH]c(=O)n([C@H]2CC[C@@H](CO)O2)cc1C#Cc1ccccc1`, in test [1], the inhibition at 50 µM was 25%. In test [2], this compound had an inhibition at 100 µM of 25%.

`Nc1ccn([C@H]2CC[C@@H](CO)O2)c(=O)n1` [ZALCITABINE] returned an inhibition at 100 µM in test [2] of 0%.

With `CO[C@H]1/C=C/O[C@@]2(C)Oc3c(C)c(O)c4c(O)c(c(/C=N/N5CCN(C)CC5)c(O)c4c3C2=O)NC(=O)/C(C)=C\C=C\[C@H](C)[C@H](O)[C@@H](C)[C@@H](O)[C@@H](C)[C@H](OC(C)=O)[C@@H]1C` [RIFAMPIN], the MIC90 in test [5] stood at 0.5 µg/mL (≈ 0.608 µM).

With `CC(=O)OC[C@@H]1CC[C@H](n2cc(Cl)c(=S)[nH]c2=O)O1`, the inhibition at 50 µM in test [1] came out at 70%. This compound also gave an inhibition at 100 µM in test [2] of 100%. Also, in test [5], the MIC90 is 50 µg/mL (≈ 164 µM).

Turning to `CCCCCCCCCC#Cc1cn([C@H]2CC[C@@H](CO)O2)c(=O)[nH]c1=O`, the inhibition at 50 µM in test [1] is 100%. In test [2], this compound showed an inhibition at 100 µM of 100%. In test [3], the inhibition at 10 µM came to 100%. In test [4], this compound had an inhibition at 1 µM of 80%. In addition, the MIC90 in test [5] was 1 µg/mL (≈ 2.76 µM).

`O=c1[nH]c(=O)n([C@H]2CC[C@@H](CO)O2)cc1Br` returned an inhibition at 100 µM in test [2] of 0%.

As for `CCCCCCCCCCCCC#Cc1cn([C@H]2CC[C@@H](CO)O2)c(=O)[nH]c1=O`, testing at 50 µM in test [1] gave an inhibition of 100%. For the same compound, 100 µM produced 100% inhibition in test [2]. Besides, the inhibition at 10 µM in test [3] came out at 100%. This compound also yielded an inhibition at 1 µM in test [4] of 50%. This compound also came in with an MIC90 in test [5] of 1 µg/mL (≈ 2.47 µM).

`CCCC#Cc1cn([C@H]2CC[C@@H](CO)O2)c(=O)[nH]c1=O` showed an inhibition at 100 µM in test [2] of 50%.

Regarding `Nc1nc(=O)n([C@H]2CC[C@@H](CO)O2)cc1Br`, the inhibition at 100 µM in test [2] was found to be 70%. Moreover, testing at 10 µM in test [3] gave an inhibition of 50%.

Turning to `O=c1[nH]c(=O)n([C@H]2CC[C@@H](CO)O2)cc1Cl`, the inhibition at 100 µM in test [2] stood at 0%.

Regarding `Nc1nc(O)c2ncn([C@H]3CC[C@@H](CO)O3)c2n1`, in test [2], the inhibition at 100 µM came out at 0%.

For `N#Cc1cn(C2CCC(CO)O2)c2ncnc(N)c12` (stereo not drawn), the inhibition at 50 µM in test [1] came to 40%. Besides, 100 µM produced 50% inhibition in test [2].
